Test [1] in a line: Selectivity ratio of IC50 for HDAC3 to IC50 for IC50 for HDAC6.
The target in test [2] is T1, Protein deacetylase HDAC6 (Homo sapiens, UniProt Q9UBN7).
T1 sequence (Q9UBN7 whole entry): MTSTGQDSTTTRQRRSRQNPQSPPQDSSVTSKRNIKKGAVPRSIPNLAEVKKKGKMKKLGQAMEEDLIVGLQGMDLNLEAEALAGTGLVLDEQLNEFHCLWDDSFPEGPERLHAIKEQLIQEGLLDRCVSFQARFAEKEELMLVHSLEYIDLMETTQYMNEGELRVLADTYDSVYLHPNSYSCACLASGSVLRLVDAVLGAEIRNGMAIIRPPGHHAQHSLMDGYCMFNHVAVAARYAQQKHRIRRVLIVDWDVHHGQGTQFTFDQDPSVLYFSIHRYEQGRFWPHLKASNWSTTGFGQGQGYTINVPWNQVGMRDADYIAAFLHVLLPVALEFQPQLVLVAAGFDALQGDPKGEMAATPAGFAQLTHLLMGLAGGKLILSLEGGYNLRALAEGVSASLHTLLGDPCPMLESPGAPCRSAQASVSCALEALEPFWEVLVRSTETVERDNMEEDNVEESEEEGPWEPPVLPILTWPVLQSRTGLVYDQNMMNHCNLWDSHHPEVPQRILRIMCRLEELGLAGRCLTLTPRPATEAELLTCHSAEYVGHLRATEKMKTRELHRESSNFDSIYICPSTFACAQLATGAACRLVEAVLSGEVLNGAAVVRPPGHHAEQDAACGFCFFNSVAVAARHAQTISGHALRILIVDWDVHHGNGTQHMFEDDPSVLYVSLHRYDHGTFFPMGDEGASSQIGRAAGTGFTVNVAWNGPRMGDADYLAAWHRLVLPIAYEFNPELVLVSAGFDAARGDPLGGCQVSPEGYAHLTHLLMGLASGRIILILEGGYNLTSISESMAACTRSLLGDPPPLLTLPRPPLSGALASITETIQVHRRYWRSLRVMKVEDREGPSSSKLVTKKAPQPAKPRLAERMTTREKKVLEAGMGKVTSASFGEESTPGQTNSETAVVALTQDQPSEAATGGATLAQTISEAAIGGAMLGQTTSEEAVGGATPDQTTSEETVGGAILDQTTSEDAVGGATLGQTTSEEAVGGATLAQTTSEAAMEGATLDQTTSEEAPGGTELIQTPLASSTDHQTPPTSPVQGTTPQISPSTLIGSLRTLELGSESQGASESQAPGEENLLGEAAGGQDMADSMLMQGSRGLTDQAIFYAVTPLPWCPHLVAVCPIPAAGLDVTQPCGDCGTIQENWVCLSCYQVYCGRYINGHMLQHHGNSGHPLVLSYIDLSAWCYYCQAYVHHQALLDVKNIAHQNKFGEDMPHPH
As to the kind of experiment: Inhibition of HDAC6 using Fluor-de-Lys as substrate compound pretreated for 30 mins before substrate addition by fluorescence assay.

For a further test, the target named is Histone deacetylase 1 (Homo sapiens, UniProt Q13547). As to the kind of experiment: Inhibition of HDAC1 using Fluor-de-Lys as substrate compound pretreated for 30 mins before substrate addition by fluorescence assay.
Chain of Histone deacetylase 1 (Q13547 whole entry): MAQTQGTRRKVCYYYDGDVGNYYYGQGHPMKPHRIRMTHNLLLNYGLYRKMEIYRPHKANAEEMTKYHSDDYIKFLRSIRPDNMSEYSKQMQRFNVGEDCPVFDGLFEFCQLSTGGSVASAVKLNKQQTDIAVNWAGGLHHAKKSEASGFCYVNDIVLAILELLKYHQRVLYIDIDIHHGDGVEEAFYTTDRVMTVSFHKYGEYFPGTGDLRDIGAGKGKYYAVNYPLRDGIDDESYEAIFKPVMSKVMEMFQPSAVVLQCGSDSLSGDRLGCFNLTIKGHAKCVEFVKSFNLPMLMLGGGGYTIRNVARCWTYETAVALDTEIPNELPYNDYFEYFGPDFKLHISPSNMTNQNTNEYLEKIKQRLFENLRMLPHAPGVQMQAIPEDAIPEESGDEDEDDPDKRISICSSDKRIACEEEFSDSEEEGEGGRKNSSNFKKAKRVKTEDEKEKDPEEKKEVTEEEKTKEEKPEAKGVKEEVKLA
Another test addresses Histone deacetylase. Description: Inhibition of HDAC in human Hela cell lysate using Fluor-de-Lys as substrate compound pretreated for 30 mins before substrate addition by fluorescence assay. Type of test: cell-based.
Another test concerns the target Histone deacetylase 3 (Homo sapiens, UniProt O15379). As to the kind of experiment: Inhibition of HDAC3 using Fluor-de-Lys as substrate compound pretreated for 30 mins before substrate addition by fluorescence assay.

Chain of Histone deacetylase 3 (O15379 whole entry): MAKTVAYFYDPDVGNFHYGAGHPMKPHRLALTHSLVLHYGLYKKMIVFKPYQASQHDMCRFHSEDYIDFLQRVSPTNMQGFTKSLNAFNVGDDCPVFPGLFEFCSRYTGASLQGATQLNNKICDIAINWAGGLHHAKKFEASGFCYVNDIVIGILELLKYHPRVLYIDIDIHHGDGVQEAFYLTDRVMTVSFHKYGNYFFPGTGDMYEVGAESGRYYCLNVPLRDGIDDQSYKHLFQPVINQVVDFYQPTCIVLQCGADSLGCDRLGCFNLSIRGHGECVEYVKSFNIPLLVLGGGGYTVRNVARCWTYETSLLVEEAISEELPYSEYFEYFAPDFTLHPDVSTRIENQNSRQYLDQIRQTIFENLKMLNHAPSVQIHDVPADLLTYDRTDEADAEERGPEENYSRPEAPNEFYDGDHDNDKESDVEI

Take `CCC(CCCCC(=O)Nc1ccccc1)CC(=O)NO` (stereo unspecified): in test [1], the Ratio IC50 turned out to be 12.
For `CC(C)(C)C(CCCCC(=O)NO)CC(=O)Nc1ccccc1` (stereo unspecified), the IC50 in test [2] was found to be 2400 nM; on Histone deacetylase 1, 990 nM; on Histone deacetylase it was 1940 nM; on Histone deacetylase 3 it was 5400 nM. For the same molecule, the Ratio IC50 in test [1] is 2.

Source of the values: ChEMBL document CHEMBL2203062 (Bioorg Med Chem Lett, 2012).
